Data on 33 molecules can be found in US20220324865A1 (Bayer Aktiengesellschaft, priority 2018, published 2022).

Counter-ions that a name gives are not always drawn.

This test addresses T1, human EP3 receptor (Homo sapiens, UniProt P43115).
T1 construct: expressed in transfected cells; host or cells: CHO K1 (Chinese Hamster Ovary), stably co-transfected with Galpha16 and mitochondrial clytin
T1 sequence (P43115 1-390): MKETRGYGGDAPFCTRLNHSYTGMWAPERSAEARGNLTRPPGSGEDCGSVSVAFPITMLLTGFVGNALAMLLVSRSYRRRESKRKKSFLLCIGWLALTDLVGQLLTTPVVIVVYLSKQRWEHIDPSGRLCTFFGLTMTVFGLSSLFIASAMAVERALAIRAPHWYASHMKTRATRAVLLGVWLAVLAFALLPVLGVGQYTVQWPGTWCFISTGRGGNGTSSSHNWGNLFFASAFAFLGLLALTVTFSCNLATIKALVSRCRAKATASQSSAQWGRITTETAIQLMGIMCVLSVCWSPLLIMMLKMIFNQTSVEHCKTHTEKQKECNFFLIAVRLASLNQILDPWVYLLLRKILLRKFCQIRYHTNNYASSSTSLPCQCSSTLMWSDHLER
Nature of the test: Cellular in vitro assay for determining EP3 receptor activity (human EP3 cell line, sulprostone-stimulated calcium luminescence). Conditions: CHO cells expressing human EP3 and mitochondrial Clytin; antagonist mode, sulprostone at EC50; read-out: EP3 CHO mtCLY ANTAG IC50. The class given is cell-based. The gist of the method: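 CHO K1 cells stably expressing human EP3 with Gα16 and mitochondrial Clytin, loaded overnight with coelenterazine. Compounds added 10 min before sulprostone at its EC50; antagonism read immediately as reduced calcium-driven luminescence, quadruplicate points.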
What is called IC50 is the midpoint of a concentration-inhibition curve. Consider `Cc1cc(-c2cn3nc(C(=O)N[C@@H](C)C4CC4)c(C(C)C)c3c(=O)[nH]2)ccc1Cl` [6-608], for which the IC50 worked out at 1.9 nM.
The same measure for `Cc1ccc(-c2cn3nc(C(=O)NCC(O)(C(F)(F)F)C(F)(F)F)c(C4CC4)c3c(=O)[nH]2)cc1Cl` [6-261]: 2.7 nM; for `Cc1c(C(=O)NC(C)c2ccc3c(c2)OCCO3)nn2c(C)c(-c3ccc4ccccc4c3)[nH]c(=O)c12` (stereo not drawn) [Example 3-31, N-[1-(2,3-Dihydro-1,4-benzodioxin-6-yl)ethyl]-3,7-dimethyl-6-(2-naphthyl)-4-oxo-5H-pyrazolo[1,5-a]pyrazine-2-carboxamide]: 4.45 nM.
In the case of `COC[C@H](NC(=O)c1nn2cc(-c3ccc(C(F)(F)F)c(C)c3)[nH]c(=O)c2c1C1CC1)c1ccccc1` [6-137], the half-maximal inhibitory concentration (IC50) came to 1.4 nM.
The same measure for `COCc1c(C(=O)N[C@H](CCO)c2ccccc2)nn2cc(-c3ccc4ccccc4c3)[nH]c(=O)c12` [Example 1-76, N-[(1R)-3-Hydroxy-1-phenylpropyl]-3-(methoxymethyl)-6-(naphthalen-2-yl)-4-oxo-4,5-dihydropyrazolo[1,5-a]pyrazine-2-carboxamide]: 0.725 nM; for `Cc1cc(-c2cn3nc(C(=O)NC4(c5ccc(F)cc5)CN(CC(F)F)C4)c(C4CC4)c3c(=O)[nH]2)ccc1Cl` [6-340]: 1.02 nM; for `CCN(CCO)CC(NC(=O)c1cc2c(=O)[nH]c(-c3ccc4ccccc4c3)cn2n1)c1ccccc1` (stereo not drawn) [Example 1-27, N-[2-[Ethyl(2-hydroxyethyl)amino]-1-phenylethyl]-6-(2-naphthyl)-4-oxo-5H-pyrazolo[1,5-a]-pyrazine-2-carboxamide]: 2.25 nM.
Regarding `CC(NC(=O)c1cc2c(=O)[nH]c(-c3ccc4ccccc4c3)cn2n1)c1ccc(O)cc1` (single isomer, unassigned) [6-543], the concentration for half-maximal inhibition (IC50) was 3.3 nM.
In the case of `CCn1nccc1CNC(=O)c1nn2c(C)c(-c3ccc(C)c(C)c3)[nH]c(=O)c2c1C(F)(F)F` [6-13], the IC50 is 9.3 nM.
Consider `Cc1cccc2ncc(-c3cn4nc(C(=O)NC(CO)c5ccc(Br)cc5)c(C(C)C)c4c(=O)[nH]3)cc12` (stereo not drawn) [Example 4-75, N-[1-(4-Bromophenyl)-2-hydroxyethyl]-3-isopropyl-6-(5-methyl-3-quinolyl)-4-oxo-5H-pyrazolo[1,5-a]pyrazine-2-carboxamide], for which the IC50 was found to be 1.25 nM.
Regarding `COc1ccc(C(CCO)NC(=O)c2nn3cc(-c4cnc5cccc(C)c5c4)[nH]c(=O)c3c2C(C)C)cc1` (stereo not drawn) [Example 4-83, N-[3-Hydroxy-1-(4-methoxyphenyl)propyl]-3-isopropyl-6-(5-methyl-3-quinolyl)-4-oxo-5H-pyrazolo[1,5-a]pyrazine-2-carboxamide], the IC50 amounted to 2 nM.
For the molecule `Cc1cc(-c2cn3nc(C(=O)N[C@H](c4ccc(F)cc4)C(C)(C)O)c(C4CC4)c3c(=O)[nH]2)ccc1C(F)(F)F` [6-134], the 50% inhibitory concentration (IC50) came out at 8.6 nM.
For the molecule `Cc1ccc(-c2cn3nc(C(=O)N[C@@H](C)C4CC4)c(C4CC4)c3c(=O)[nH]2)cc1C` [6-439], the IC50 is 1 nM.
For `Cc1ccc(-c2cn3nc(C(=O)NC(CO)c4ccc(F)cc4)c(C(F)(F)F)c3c(=O)[nH]2)cc1Cl` (single isomer, unassigned) [6-155], the half-inhibitory concentration (IC50) stood at 2.8 nM.
Take `COC[C@@H](NC(=O)c1nn2cc(-c3ccc(C(F)(F)F)c(C)c3)[nH]c(=O)c2c1C1CC1)c1ccccc1` [6-135]: the 50% inhibitory concentration (IC50) came to 2.55 nM.
`Cc1ccc(-c2cn3nc(C(=O)N[C@@H](C)C4CC4)c(C(F)(F)F)c3c(=O)[nH]2)cc1C` [6-119]: the 50% inhibitory concentration (IC50) came to 1.09 nM.
For `O=C(NCC(O)C(F)(F)F)c1nn2cc(-c3ccc4c(c3)OCCO4)[nH]c(=O)c2c1C1CC1` (racemic) [6-465], the concentration for half-maximal inhibition (IC50) was determined as 1.75 nM.
Take `Cc1ccc(-c2cn3nc(C(=O)N[C@H](C)C(C)(C)C)c(C4CC4)c3c(=O)[nH]2)cc1Cl` [6-281]: the 50% inhibitory concentration (IC50) was determined as 2.05 nM.
The same measure for `CN(C)CC(NC(=O)c1cc2c(=O)[nH]c(-c3ccc4ccccc4c3)cn2n1)c1ccccc1` (racemic) [Example 1-4, rac-N-[2-(Dimethylamino)-1-phenylethyl]-6-(naphthalen-2-yl)-4-oxo-4,5-dihydropyrazolo[1,5-a]-pyrazine-2-carboxamide]: 4.36 nM; for `CN1CC(NC(=O)c2nn3cc(-c4ccc5ccccc5c4)[nH]c(=O)c3c2C(F)(F)F)(c2ccc(F)cc2)C1` [Example 1-31, N-[3-(4-Fluorophenyl)-1-methylazetidin-3-yl]-6-(naphthalen-2-yl)-4-oxo-3-(trifluoromethyl)-5H-pyrazolo[1,5-a]pyrazine-2-carboxamide trifluoroacetic acid salt]: 1.84 nM; for `CC(C)c1c(C(=O)N[C@@H](C)c2ccc(F)cc2)nn2cc(-c3ccc4ccccc4c3)[nH]c(=O)c12` [Example 1-9, N-[(1S)-1-(4-Fluorophenyl)ethyl]-6-(naphthalen-2-yl)-4-oxo-3-(propan-2-yl)-4,5-dihydropyrazolo-[1,5-a]pyrazine-2-carboxamide]: 2.37 nM.
With `Cc1cc(-c2cn3nc(C(=O)N[C@H](CCO)c4ccc(F)cc4)c(C(F)(F)F)c3c(=O)[nH]2)ccc1Cl` [6-233], the IC50 came out at 0.37 nM.
On to `Cc1ccc(-c2cn3nc(C(=O)NC4(c5ccc(F)cc5)CN(C)C4)cc3c(=O)[nH]2)cc1Cl` [6-123], for which the IC50 came out at 5.63 nM.
The same measure for `O=C(NCc1ccccc1)c1cc2c(=O)[nH]c(-c3ccc4ccccc4c3)cn2n1` [6-16]: 4.16 nM; for `O=C(NC1(c2ccc(F)cc2)CN(CC(F)(F)F)C1)c1nn2cc(-c3ccc(Cl)c(F)c3)[nH]c(=O)c2c1C1CC1` [6-103]: 0.74 nM.
On to `Cc1ccc(-c2cn3nc(C(=O)N[C@H](C)C(C)C)c(C(C)C)c3c(=O)[nH]2)cc1C` [Example 1-141, 6-(3,4-Dimethylphenyl)-N-[(2R)-3-methylbutan-2-yl]-4-oxo-3-(propan-2-yl)-4,5-dihydropyrazolo-[1,5-a]pyrazine-2-carboxamide], for which the IC50 is 1.7 nM.
The same measure for `Cc1ccc(-c2cn3nc(C(=O)NC4(c5ccc(F)cc5)CN(C)C4)c(C4CCC4)c3c(=O)[nH]2)cc1F` [6-574]: 1.5 nM; for `CC(C)(O)[C@@H](NC(=O)c1nn2cc(-c3ccc4ccccc4c3)[nH]c(=O)c2c1C(F)(F)F)c1ccccc1` [Example 1-18, N-[(1S)-2-Hydroxy-2-methyl-1-phenylpropyl]-6-(naphthalen-2-yl)-4-oxo-3-(trifluoromethyl)-4,5-dihydropyrazolo[1,5-a]pyrazine-2-carboxamide]: 1.04 nM.
The same measure for `Cc1cc(-c2cn3nc(C(=O)N[C@@H](c4ccc(F)cc4)[C@H](O)C(F)(F)F)c(C4CC4)c3c(=O)[nH]2)ccc1Cl` [6-315]: 2 nM; for `O=C(N[C@@H](CCO)c1ccc(F)cc1)c1cc2c(=O)[nH]c(-c3ccc4ccccc4c3)cn2n1` [Example 1-69, N-[(1S)-1-(4-Fluorophenyl)-3-hydroxypropyl]-6-(naphthalen-2-yl)-4-oxo-4,5-dihydropyrazolo-[1,5-a]pyrazine-2-carboxamide]: 2.25 nM; for `Cc1cc(-c2cn3nc(C(=O)NC4(c5ccc(F)cc5)CN(C)C4)c(C(F)(F)C(F)(F)F)c3c(=O)[nH]2)ccc1Cl` [6-480]: 3.05 nM.
Take `Cc1ccc(-c2cn3nc(C(=O)NCC(N)C(F)(F)F)c(C4CC4)c3c(=O)[nH]2)cc1F` (single isomer, unassigned) [6-396]: the IC50 came out at 3.05 nM.
The same measure for `Cc1cc(-c2cn3nc(C(=O)N[C@H](C)C4CC4)c(C(F)(F)C(F)(F)F)c3c(=O)[nH]2)ccc1Cl` [6-476]: 5.3 nM.
